{"source": "patent US11419806B2", "about": "“Prebiotic oral care methods using a saccharide” (Colgate-Palmolive Company, priority 2013, dated 2022)", "assay_type_in_all_cases": "cell-based", "key": {"[1]": {"system": "S. salivarius", "test": "Twenty-four hour biofilm growth (crystal violet)", "protocol": "(§1) The increase in biofilm formation of the tested bacteria in response to selected saccharides (D-turanose, D-lactitol, myo-inositol, and N-acetyl-D-mannosamine) was investigated by setting up biofilm growth assays in a nutritionally rich medium (brain heart infusion broth (BHI), Oxoid), over 24 hours. Late exponential growth phase liquid cultures were prepared by transferring the respective bacterium from blood agar plates to BHI and overnight incubation at 37° C. in an anaerobic atmosphere for A. viscosus, V. parvula, P. gingivalis, P. intermedia, T. forsythia, A. naeslundii, and C. sputigena, and in a 5% CO2 environment for S. salivarius, S. sanguinis, S. mitis, A. actinomycetemcomitans, S. mutans, and S. gordonii. Overnight cultures were transferred to BHI and adjusted to a concentration of 1×10^7 CFU/ml by measuring the optical density at 600 nm (OD600) (BioRad SmartSpec 3000). For each strain, 200 μl of the bacterial suspension was added to a 96-well plate containing 20 μl of the respective saccharides. Final concentrations of the saccharides were set to 5, 10, 20 and 25 μmol/ml. […] Additionally, for each bacterium tested, a background control, to correct for background staining, was added. This background control contained the bacterium tested and 0.03 weight % chlorhexidine, as an antiseptic. Plates were incubated as previously described. After 24 hrs the supernatant was removed from the wells of the plates. The wells were washed twice with 1×100 μL PBS (phosphate buffered saline), fixed for 20 minutes with 96% vol. ethanol (96% vol. solution in water) and the biofilm retained at the bottom of the wells was stained with 1 weight % crystal violet (1 weight % solution in water). The bound dye was dissolved with 5% vol. acetic acid (5% vol. solution in water). Quantification of the stained biofilm was performed by measuring the absorbance at 630 nm using a Multiskan Ascent microplate reader (Thermo Scientific).\n(§2) The experiment was carried out on three different days (thus providing 3 biological replicas) and each day the experiment was carried out in quadruple (thus providing 4 technical replicas) for each combination of bacterium with saccharide and for each control. For each day and for each combination, the average (mean) of the values obtained (as detailed above) for the four technical replicas was calculated to provide a single value for each combination on each day. The values shown in Tables 7a, 7b, 8a, 8b, below, are the average (mean) of the three single values obtained for each combination of bacterium with saccharide."}, "[2]": {"system": "A. actinomycetemcomitans", "test": "Twenty-four hour biofilm growth (crystal violet)", "protocol": "as §1, §2"}, "[3]": {"system": "S. gordonii", "test": "Twenty-four hour biofilm growth (crystal violet)", "protocol": "as §1, §2"}, "[4]": {"system": "T. forsythia", "test": "Twenty-four hour biofilm growth (crystal violet)", "protocol": "as §1, §2"}, "[5]": {"system": "S. sanguinis", "test": "Twenty-four hour biofilm growth (crystal violet)", "protocol": "as §1, §2"}, "[6]": {"system": "P. intermedia", "test": "Twenty-four hour biofilm growth (crystal violet)", "protocol": "as §1, §2"}, "[7]": {"system": "P. gingivalis", "test": "Twenty-four hour biofilm growth (crystal violet)", "protocol": "as §1, §2"}, "[8]": {"system": "A. viscosus", "test": "Twenty-four hour biofilm growth (crystal violet)", "protocol": "as §1, §2"}, "[9]": {"system": "S. mitis", "test": "Twenty-four hour biofilm growth (crystal violet)", "protocol": "as §1, §2"}, "[10]": {"system": "A. naeslundii", "test": "Twenty-four hour biofilm growth (crystal violet)", "protocol": "as §1, §2"}, "[11]": {"system": "C. sputigena", "test": "Twenty-four hour biofilm growth (crystal violet)", "protocol": "as §1, §2"}, "[12]": {"system": "S. mutans", "test": "Twenty-four hour biofilm growth (crystal violet)", "settings": "S mutans", "protocol": "as §1, §2"}, "[13]": {"system": "V. parvula", "test": "Twenty-four hour biofilm growth (crystal violet)", "protocol": "as §1, §2"}, "[14]": {"system": "beneficial oral bacteria and pathogenic oral bacteria", "test": "Twenty-four hour biofilm growth, overall prebiotic assessment", "settings": "concentrations of 5, 10, 20 and 25 μmol/ml", "source_text": "Substrates that were able to increase the biofilm mass of at least one of the above beneficial bacteria while not or only minimally increasing the biofilm mass of the pathogenic bacteria are considered to be prebiotic compounds.\nas §1\nas §2, with “saccharide. […]” for “saccharide.”"}}}
{"compound": "O[C@H]1[C@H](O)[C@@H](O)[C@H](O)[C@@H](O)[C@H]1O", "note": "[Myo-Inositol, (1R,2R,3S,4S,5R,6S)-cyclohexane-1,2,3,4,5,6-hexol]", "values": [{"measurement": "biofilm growth: OD 630 nm at 24 hrs divided by OD of control (control = 1)", "setting": "[1]; 5 μmol/ml", "value": 0.8358}, {"measurement": "biofilm growth: OD 630 nm at 24 hrs divided by OD of control (control = 1)", "setting": "[1]; 10 μmol/ml", "value": 0.9694}, {"measurement": "biofilm growth: OD 630 nm at 24 hrs divided by OD of control (control = 1)", "setting": "[1]; 20 μmol/ml", "value": 0.8119}, {"measurement": "biofilm growth: OD 630 nm at 24 hrs divided by OD of control (control = 1)", "setting": "[1]; 25 μmol/ml", "value": 0.8202}, {"measurement": "biofilm growth: OD 630 nm at 24 hrs divided by OD of control (control = 1)", "setting": "[2]; 5 μmol/ml", "value": 0.8323}, {"measurement": "biofilm growth: OD 630 nm at 24 hrs divided by OD of control (control = 1)", "setting": "[2]; 10 μmol/ml", "value": 0.8378}, {"measurement": "biofilm growth: OD 630 nm at 24 hrs divided by OD of control (control = 1)", "setting": "[2]; 20 μmol/ml", "value": 0.9661}, {"measurement": "biofilm growth: OD 630 nm at 24 hrs divided by OD of control (control = 1)", "setting": "[2]; 25 μmol/ml", "value": 0.9898}, {"measurement": "biofilm growth: OD 630 nm at 24 hrs divided by OD of control (control = 1)", "setting": "[3]; 5 μmol/ml", "value": 0.6178}, {"measurement": "biofilm growth: OD 630 nm at 24 hrs divided by OD of control (control = 1)", "setting": "[3]; 10 μmol/ml", "value": 0.6384}, {"measurement": "biofilm growth: OD 630 nm at 24 hrs divided by OD of control (control = 1)", "setting": "[3]; 20 μmol/ml", "value": 0.6650}, {"measurement": "biofilm growth: OD 630 nm at 24 hrs divided by OD of control (control = 1)", "setting": "[3]; 25 μmol/ml", "value": 0.6716}, {"measurement": "biofilm growth: OD 630 nm at 24 hrs divided by OD of control (control = 1)", "setting": "[4]; 5 μmol/ml", "value": 0.6841}, {"measurement": "biofilm growth: OD 630 nm at 24 hrs divided by OD of control (control = 1)", "setting": "[4]; 10 μmol/ml", "value": 0.6396}, {"measurement": "biofilm growth: OD 630 nm at 24 hrs divided by OD of control (control = 1)", "setting": "[4]; 20 μmol/ml", "value": 0.7688}, {"measurement": "biofilm growth: OD 630 nm at 24 hrs divided by OD of control (control = 1)", "setting": "[4]; 25 μmol/ml", "value": 0.6940}, {"measurement": "biofilm growth: OD 630 nm at 24 hrs divided by OD of control (control = 1)", "setting": "[5]; 5 μmol/ml", "value": 2.4209}, {"measurement": "biofilm growth: OD 630 nm at 24 hrs divided by OD of control (control = 1)", "setting": "[5]; 10 μmol/ml", "value": 2.3658}, {"measurement": "biofilm growth: OD 630 nm at 24 hrs divided by OD of control (control = 1)", "setting": "[5]; 20 μmol/ml", "value": 2.1878}, {"measurement": "biofilm growth: OD 630 nm at 24 hrs divided by OD of control (control = 1)", "setting": "[5]; 25 μmol/ml", "value": 2.1240}, {"measurement": "biofilm growth: OD 630 nm at 24 hrs divided by OD of control (control = 1)", "setting": "[6]; 5 μmol/ml", "value": 1.1539}, {"measurement": "biofilm growth: OD 630 nm at 24 hrs divided by OD of control (control = 1)", "setting": "[6]; 10 μmol/ml", "value": 1.2210}, {"measurement": "biofilm growth: OD 630 nm at 24 hrs divided by OD of control (control = 1)", "setting": "[6]; 20 μmol/ml", "value": 1.1660}, {"measurement": "biofilm growth: OD 630 nm at 24 hrs divided by OD of control (control = 1)", "setting": "[6]; 25 μmol/ml", "value": 1.0417}, {"measurement": "biofilm growth: OD 630 nm at 24 hrs divided by OD of control (control = 1)", "setting": "[7]; 5 μmol/ml", "value": 0.9325}, {"measurement": "biofilm growth: OD 630 nm at 24 hrs divided by OD of control (control = 1)", "setting": "[7]; 10 μmol/ml", "value": 0.9657}, {"measurement": "biofilm growth: OD 630 nm at 24 hrs divided by OD of control (control = 1)", "setting": "[7]; 20 μmol/ml", "value": 0.9448}, {"measurement": "biofilm growth: OD 630 nm at 24 hrs divided by OD of control (control = 1)", "setting": "[7]; 25 μmol/ml", "value": 1.0290}, {"measurement": "biofilm growth: OD 630 nm at 24 hrs divided by OD of control (control = 1)", "setting": "[8]; 5 μmol/ml", "value": 0.8136}, {"measurement": "biofilm growth: OD 630 nm at 24 hrs divided by OD of control (control = 1)", "setting": "[8]; 10 μmol/ml", "value": 0.8735}, {"measurement": "biofilm growth: OD 630 nm at 24 hrs divided by OD of control (control = 1)", "setting": "[8]; 20 μmol/ml", "value": 0.8117}, {"measurement": "biofilm growth: OD 630 nm at 24 hrs divided by OD of control (control = 1)", "setting": "[8]; 25 μmol/ml", "value": 0.8167}, {"measurement": "biofilm growth: OD 630 nm at 24 hrs divided by OD of control (control = 1)", "setting": "[9]; 5 μmol/ml", "value": 1.2433}, {"measurement": "biofilm growth: OD 630 nm at 24 hrs divided by OD of control (control = 1)", "setting": "[9]; 10 μmol/ml", "value": 1.0616}, {"measurement": "biofilm growth: OD 630 nm at 24 hrs divided by OD of control (control = 1)", "setting": "[9]; 20 μmol/ml", "value": 1.1754}, {"measurement": "biofilm growth: OD 630 nm at 24 hrs divided by OD of control (control = 1)", "setting": "[9]; 25 μmol/ml", "value": 1.1357}, {"measurement": "biofilm growth: OD 630 nm at 24 hrs divided by OD of control (control = 1)", "setting": "[10]; 5 μmol/ml", "value": 1.0309}, {"measurement": "biofilm growth: OD 630 nm at 24 hrs divided by OD of control (control = 1)", "setting": "[10]; 10 μmol/ml", "value": 1.0353}, {"measurement": "biofilm growth: OD 630 nm at 24 hrs divided by OD of control (control = 1)", "setting": "[10]; 20 μmol/ml", "value": 1.0270}, {"measurement": "biofilm growth: OD 630 nm at 24 hrs divided by OD of control (control = 1)", "setting": "[10]; 25 μmol/ml", "value": 1.0456}, {"measurement": "biofilm growth: OD 630 nm at 24 hrs divided by OD of control (control = 1)", "setting": "[11]; 5 μmol/ml", "value": 0.9276}, {"measurement": "biofilm growth: OD 630 nm at 24 hrs divided by OD of control (control = 1)", "setting": "[11]; 10 μmol/ml", "value": 0.9522}, {"measurement": "biofilm growth: OD 630 nm at 24 hrs divided by OD of control (control = 1)", "setting": "[11]; 20 μmol/ml", "value": 0.9758}, {"measurement": "biofilm growth: OD 630 nm at 24 hrs divided by OD of control (control = 1)", "setting": "[11]; 25 μmol/ml", "value": 0.8233}, {"measurement": "biofilm growth: OD 630 nm at 24 hrs divided by OD of control (control = 1)", "setting": "[12]; 5 μmol/ml", "value": 0.9177}, {"measurement": "biofilm growth: OD 630 nm at 24 hrs divided by OD of control (control = 1)", "setting": "[12]; 10 μmol/ml", "value": 1.0152}, {"measurement": "biofilm growth: OD 630 nm at 24 hrs divided by OD of control (control = 1)", "setting": "[12]; 20 μmol/ml", "value": 1.1995}, {"measurement": "biofilm growth: OD 630 nm at 24 hrs divided by OD of control (control = 1)", "setting": "[12]; 25 μmol/ml", "value": 1.4107}, {"measurement": "biofilm growth: OD 630 nm at 24 hrs divided by OD of control (control = 1)", "setting": "[13]; 5 μmol/ml", "value": 1.0021}, {"measurement": "biofilm growth: OD 630 nm at 24 hrs divided by OD of control (control = 1)", "setting": "[13]; 10 μmol/ml", "value": 1.1121}, {"measurement": "biofilm growth: OD 630 nm at 24 hrs divided by OD of control (control = 1)", "setting": "[13]; 20 μmol/ml", "value": 1.0036}, {"measurement": "biofilm growth: OD 630 nm at 24 hrs divided by OD of control (control = 1)", "setting": "[13]; 25 μmol/ml", "value": 1.0399}, {"measurement": "prebiotic effects (biofilm growth, threshold value 1.6)", "setting": "[14]", "value": "exhibited prebiotic effects"}]}
